Each structure is given as a SMILES string. Changes are numbered by the printed parent chain. Several values for one entry are separate records, joined by “and”; a condition that tells them apart may be missing. Equal entries are not always repeated. Where a SMILES comes first, the peptide text is derived from it. [ ]: non-standard residue; d: D form. pY = N[C@@H](Cc1ccc(OP(=O)(O)O)cc1)C(=O)O

For one test, the target named is T1, tSH2R192A of ZAP-70 (Homo sapiens, UniProt P43403).
T1 sequence (P43403 1-256 R190A): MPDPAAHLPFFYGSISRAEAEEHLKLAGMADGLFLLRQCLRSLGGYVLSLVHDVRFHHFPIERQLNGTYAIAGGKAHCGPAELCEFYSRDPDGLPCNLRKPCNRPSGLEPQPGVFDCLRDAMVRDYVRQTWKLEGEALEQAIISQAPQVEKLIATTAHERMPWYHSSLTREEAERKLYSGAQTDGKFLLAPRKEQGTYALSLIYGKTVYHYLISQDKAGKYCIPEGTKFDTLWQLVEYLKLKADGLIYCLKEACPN
The experiment in a line: Isothermal titration calorimetry, ZAP-70 tSH2R192A (C-SH2 mutant). (In general: ITC needs no label: the signal is the heat of the interaction.)

The target of another test is T2, ZAP-70 tSH2 domain (Homo sapiens, UniProt P43403).
T2 construct: ZAP-70 tSH2 WT (1–256), cloned in pSKB2 vector; made in house; host or cells: E. coli BL21(DE3)
T2 sequence (P43403 1-256): T1 sequence (P43403 1-256 R190A) with A190R
Nature of the test: Stopped-flow fluorescence binding kinetics, ZAP-70 tSH2 wild type. The settings on record: 10 °C. As for the experimental part:
We observed that the fluorescence intensity decay in two steps, fast (<200 ms) and slow (>20 s) (Fig. 3A). […] All kinetic data were first normalized against the highest intensity and then subtracted by the blank (protein only sample) (Fig. 3, A and B) and fitted to a one-site association kinetics (Table 1).
The change in fluorescence intensity was measured at λex 290 nm, λem 350 nm, and 10 °C ([71]). […] Each transient was measured over 200s (for slow kinetics) or 1s (for fast kinetics), interval with 1500 and 101 time points, respectively. For each sample, a blank dataset was recorded by measuring the change in intensity for protein only. Each data set was normalized against the maximum intensity observed for the respective sample at time 0. The normalized sample was further corrected by blank subtraction. The observed rate (kobs) was derived by fitting the change in intensity with respect to time by fitting to association kinetics equation implemented in Prism. Y=Y0+(Ymax−Y0)(1−e^[…]) where, Y0 is the intensity at time 0, Ymax is the maximum intensity, k is rate constant.

A further test deals with T3, tSH2 domain of ZAP-70 (Homo sapiens, UniProt P43403).
T3 construct: ZAP-70 tSH2 WT (1–256), cloned in pSKB2 vector; made in house; host or cells: E. coli BL21(DE3)
T3 sequence (P43403 1-256): T1 sequence (P43403 1-256 R190A) with A190R
The experiment in a line: Steady-state intrinsic tryptophan fluorescence titration, ZAP-70 tSH2 wild type. The class given is binding. As for the experimental part: (§1) The dissociation constant ( Kd ) was derived by fitting the normalized intensity (F0/F) versus ligand concentration using the following equation: F0/F=Bmax∗X^nH/(Kd^nH+X^nH) where F0 and F is fluorescence intensity in absence and presence of ligand, respectively. Bmax is the maximum binding, and nH is the Hill coefficient. The Hill coefficient (nH) was also determined from Hill plot ([70]).

In a further test the target is T4, Syk tSH2 domain (Homo sapiens, UniProt P43405).
T4 construct: Syk tSH2 (7–263), cloned in pGEX6P1 vector; GST (N, cleaved yes); host or cells: E. coli BL21(DE3)
The experiment in a line: Steady-state intrinsic tryptophan fluorescence titration, Syk tSH2. The class given is binding. Particulars: 25 °C, 0.5 μM tSH2, SD from three independent experiments. The method, then: as §1

Description for tSH2R192A of ZAP-70: We probed Kd1 and Kd1∗ by fluorescence spectroscopy and Kd2 and Kd1∗ by ITC. To probe the Kd2 , we used ^tSH2R190A mutant that impairs phosphotyrosine binding to C-SH2 PBP (Figs. 1E and S1F).
ITC studies were carried out using Malvern-PEAQ_ITC at 20 °C. […] The Kd , ΔH, and ΔS were fitted into two-site sequential fit using ORIGIN as described previously ([33]). In the ITC experiments with C-SH2 domain mutant (R190A), the protein was buffer exchanged to 20 mM Hepes pH 8.2, 150 mM NaCl, and 5 mM β-mercaptoethanol.

In the case of `CC(C)C[C@H](NC(=O)[C@H](CC(N)=O)NC(=O)[C@H](CC(C)C)NC(=O)[C@H](CCC(=O)O)NC(=O)[C@H](CC(N)=O)NC(=O)[C@H](Cc1ccc(OP(=O)(O)O)cc1)NC(=O)[C@H](CC(C)C)NC(=O)[C@H](CCC(N)=O)NC(=O)[C@@H](N)CC(N)=O)C(=O)NCC(=O)N[C@@H](CCCNC(=N)N)C(=O)N[C@@H](CCCNC(=N)N)C(=O)N[C@@H](C)C(=O)N[C@@H](CCC(=O)O)C(=O)N[C@@H](Cc1ccc(OP(=O)(O)O)cc1)C(=O)N[C@@H](CC(=O)O)C(=O)N[C@H](C(=O)N[C@@H](CC(C)C)C(=O)N[C@@H](CC(=O)O)C(=O)O)C(C)C` [ITAM-Y2P-ζ1 E13A], the dissociation constant (Kd) (commonly the free concentration of one partner at which half of the binding sites on the other are occupied at equilibrium, for simple one-to-one binding) on tSH2R192A of ZAP-70 was 9.8 ± 0.75 µM.
`CC(C)C[C@H](NC(=O)[C@H](CC(N)=O)NC(=O)[C@H](CC(C)C)NC(=O)[C@H](CCC(=O)O)NC(=O)[C@H](CC(N)=O)NC(=O)[C@H](Cc1ccc(OP(=O)(O)O)cc1)NC(=O)[C@H](CC(C)C)NC(=O)[C@H](CCC(N)=O)NC(=O)[C@@H](N)CC(N)=O)C(=O)NCC(=O)N[C@@H](CCCNC(=N)N)C(=O)N[C@@H](CCCNC(=N)N)C(=O)N[C@@H](CCC(=O)O)C(=O)N[C@@H](CCC(=O)O)C(=O)N[C@@H](Cc1ccc(O)cc1)C(=O)N[C@@H](CC(=O)O)C(=O)N[C@H](C(=O)N[C@@H](CC(C)C)C(=O)N[C@@H](CC(=O)O)C(=O)O)C(C)C` [ITAM-YP-ζ1] gave a kobsfast on ZAP-70 tSH2 domain (100 nM tSH2, 30 μM peptide, 20 mM Tris pH 8.0, 150 mM NaCl, 5% glycerol, 5 mM β-mercaptoethanol, λex 290/λem 350 nm, 1 s transients, SD from three independent experiments) of 28.60 ± 5.84 s⁻¹. Moreover, on ZAP-70 tSH2 domain (wild-type tSH2), the “Slow binding step (in words)” value was “no detectable slow binding”. The “Subsequent (second) binding step” value on tSH2 domain of ZAP-70 was “no subsequent binding was observed”.
Consider `CC(C)C[C@H](NC(=O)CNC(=O)[C@@H](N)CC(=O)O)C(=O)N[C@@H](Cc1ccc(OP(=O)(O)O)cc1)C(=O)N[C@@H](CCC(N)=O)C(=O)NCC(=O)N[C@@H](CC(C)C)C(=O)N[C@@H](CO)C(=O)N[C@H](C(=O)N[C@@H](C)C(=O)N[C@H](C(=O)N[C@@H](CCCCN)C(=O)N[C@@H](CC(=O)O)C(=O)N[C@H](C(=O)N[C@@H](Cc1ccc(OP(=O)(O)O)cc1)C(=O)N[C@@H](CC(=O)O)C(=O)N[C@@H](C)C(=O)N[C@@H](CC(C)C)C(=O)N[C@@H](Cc1c[nH]cn1)C(=O)O)[C@@H](C)O)[C@@H](C)O)[C@@H](C)O` [ITAM-Y2P-ζ3] (H-DGL[pY]QGLSTATKDT[pY]DALH-OH), for which the Kd at tSH2R192A of ZAP-70 was 12 ± 0.9 µM; at Syk tSH2 domain, 0.0698 µM and 0.065 to 0.07 µM.

Source of the values: paper PMC9486129, “An evolutionary divergent thermodynamic brake in ZAP-70 fine-tunes the kinetic proofreading in T cells” (The Journal of Biological Chemistry, 2022).
